Results published in article PMC12362587, “Untargeted Diversity-Oriented Synthesis for the Discovery of New Antitumor Agents: An Integrated Approach of Inverse Virtual Screening, Bioinformatics, and Omics for Target Deconvolution” (Journal of Medicinal Chemistry, 2025).

Legend:
[1] = test system: A375; experiment: MTT cell viability assay; format: cell-based; conditions: Homo sapiens, A-375, 24 h, compounds 0.01–40 μM, read-out: In Vitro Cytotoxicity, EC50 ± SD, A375
Excerpt: (§1) Initially, we phenotypically screened the synthesized compounds over a panel of tumor cell lines composed of HEPG2, A375, SHSY5Y, MCF7, and A549 derived from liver tumor, melanoma, neuroblastoma, breast cancer, and lung adenocarcinoma, respectively. We also considered the HaCaT cell line, coming from keratinocytes, as a healthy control line. As reference, cytotoxic chemotherapeutic agent 5-fluorouracil (5-FU) has been used. The results obtained performing the MTT (3-(4,5-dimethylthiazolyl-2)-2,5-diphenyltetrazolium bromide) assay are summarized in Table .
(§2) The human neuroblastoma SHSY5Y, melanoma A375, human breast cancer MCF7, nonsmall lung cancer A549, and human epidermal keratinocyte HaCaT cell lines were obtained from ATCC and were grown in Dulbecco’s Modified Eagle Medium (DMEM) supplemented with 10% (v/v) FBS, 2 mM L-glutamine, 100 U/mL penicillin, and 0.1 mg/mL streptomycin.
(§3) Cell viability was established by measuring mitochondrial metabolic activity with MTT. In brief, HEPG2 (1 × 10^4 cells/well), A375 (2 × 10^3 cells/well), HaCaT (3 × 10^3 cells/well), A549 (3 × 10^3 cells/well), SHSY5Y (2 × 10^4 cells/well), and MCF 7 (5 × 10^3 cells/well) were plated into 96-well plates for 24 h, then the compounds (0.01–40 μM) were added. After 24h, cells were replaced with a fresh medium containing 0.5 mg/mL MTT. Cells were incubated 1–3 h at 37 °C, then the medium was discarded, and formazan blue crystals in the cells were dissolved in 100 μL per well of a solution containing isopropanol/HCl 0.1 M. The absorbance was measured at 570 nm using a microplate reader (Multiskan Go, Thermo Scientific, Waltham, MA, USA). Cell viability was expressed as a percentage relative to the untreated cells cultured in medium with 0.1% DMSO and set to 100%, whereas 10% DMSO was used as positive control and set to 0% of viability. The EC50 values were calculated using GraphPad Prism 8.0 software by nonlinear regression of dose–response inhibition.

[2] = test system: SHSY5Y; experiment: MTT cell viability assay; format: cell-based; conditions: Homo sapiens, SH-SY5Y, 24 h, compounds 0.01–40 μM, read-out: In Vitro Cytotoxicity, EC50 ± SD, SHSY5Y
Excerpt: as §1, §2, §3

[3] = test system: A549; experiment: MTT cell viability assay; format: cell-based; conditions: Homo sapiens, 24 h, compounds 0.01–40 μM, read-out: In Vitro Cytotoxicity, EC50 ± SD, A549
Excerpt: as §1, §2, §3

[4] = test system: MCF7; experiment: MTT cell viability assay; format: cell-based; conditions: Homo sapiens, 24 h, compounds 0.01–40 μM, read-out: In Vitro Cytotoxicity, EC50 ± SD, MCF7
Excerpt: as §1, §2, §3

[5] = test system: HEPG2; experiment: MTT cell viability assay; format: cell-based; conditions: Homo sapiens, 24 h, compounds 0.01–40 μM, read-out: In Vitro Cytotoxicity, EC50 ± SD, HEPG2
Excerpt: as §1
The human hepatoma HEPG2 cell line was obtained from American Type Culture Collection (ATCC, Rockville, MD, USA). Cells were grown in Eagle’s Minimum Essential Medium (EMEM) supplemented with 10% (v/v) fetal bovine serum (FBS), 2 mM L-glutamine, 1% (v/v) nonessential amino acids, 100 U/mL penicillin, and 0.1 mg/mL streptomycin.
as §3

[6] = MTT cell viability assay; format: cell-based, human; conditions: human, HaCaT keratinocyte cells (healthy control line), 24 h, compounds 0.01–40 μM, healthy control line, read-out: In Vitro Cytotoxicity, EC50 ± SD, HaCaT
Excerpt: as §1, §2, §3

[7] = test system: HaCaT; experiment: MTT cell viability assay; format: cell-based, human; conditions: in words
Excerpt: as §1, §2, §3

[8] = test system: cancer cell lines (HEPG2, A375, SHSY5Y, MCF7, A549); experiment: MTT cytotoxicity screen over panel of tumor cell lines; format: cell-based, human; conditions: in words
Excerpt: as §1, §3

Structure (SMILES) | EC50 [1] [µM] | EC50 [2] [µM] | EC50 [3] [µM] | EC50 [4] [µM] | EC50 [5] [µM] | EC50 at 24 h [6] [µM] | cytotoxicity effect over the HaCaT cell lines [7] | selectivity, tumor cell lines versus healthy line [8] | cytotoxic activity over the cancer cell lines [8]
O=c1[nH]cc(F)c(=O)[nH]1 [Compound 5-FU, 5-fluorouracil, reference compound] | 0.032 ± 0.011 | 0.072 ± 0.026 | 0.047 ± 0.02 | 0.023 ± 0.009 | 0.056 ± 0.021 | 0.481 ± 0.059 |  |  | 
CC(C)C[C@@H](C(=O)NCc1ccccc1)N1Cc2ccccc2OC1=O [Compound 7, (S)-N-Benzyl-4-methyl-2-(2-oxo-2H-benzo[e][1,3]oxazin-3(4H)-yl)pentanamide] | 13.7 ± 1.4 | 11.5 ± 2.05 | > 40 | 20.2 ± 3.57 | 35.6 ± 3.22 | 38.4 ± 4.54 | exhibited cytotoxicity effect |  | 
CC(C)(C)CNC(=O)[C@H](Cc1ccccc1)N1Cc2ccccc2OC1=O [Compound 8, (S)-N-Neopentyl-2-(2-oxo-2H-benzo[e][1,3]oxazin-3(4H)-yl)-3-phenylpropanamide] | 17.5 ± 3.22 | > 40 | 15 ± 2.84 | 13.8 ± 2.28 | 21.4 ± 4.94 | 34.8 ± 3.79 | exhibited cytotoxicity effect |  | 
CC(C)COC(=O)[C@H](Cc1ccccc1)n1c(=O)[nH]c2ccccc2c1=O [Compound 22, Isobutyl (S)-2-(2,4-Dioxo-1,4-dihydroquinazolin-3(2H)-yl)-3-phenylpropanoate] | 7.12 ± 2.54 | 30.4 ± 3.92 | 36.3 ± 5.72 | 11.2 ± 3.14 | 4.28 ± 2.04 | 27 ± 4.09 |  |  | 
CC(C)C[C@@H](C(=O)OCc1ccccc1)n1c(=O)[nH]c2ccccc2c1=O [Compound 23, Benzyl (S)-2-(2,4-Dioxo-1,4-dihydroquinazolin-3(2H)-yl)-4-methylpentanoate] | 3.88 ± 1.64 | 3.5 ± 1.41 | 4.12 ± 1.89 | 12.2 ± 2.64 | 1.7 ± 1.05 | 10.2 ± 1.84 |  | lack of selectivity | 
O=C1N[C@@H](Cc2ccccc2)C(=O)N(Cc2ccc(C(F)(F)F)cc2)c2ccccc21 [Compound 28, (S)-3-Benzyl-1-(4-(trifluoromethyl)benzyl)-3,4-dihydro-1H-benzo[e][1,4]diazepine-2,5-dione] | 13 ± 2.1 | 10.7 ± 1.26 | 8.8 ± 1.37 | 11.7 ± 3.12 | 11.1 ± 2.25 | 26.9 ± 4.4 |  | lack of selectivity | 
CC(C)C[C@@H]1NC(=O)c2ccccc2N(Cc2ccc(C(F)(F)F)cc2)C1=O [Compound 29, (S)-3-Isobutyl-1-(4-(trifluoromethyl)benzyl)-3,4-dihydro-1H-benzo[e][1,4]diazepine-2,5-dione] | 29.4 ± 4.43 | > 40 | > 40 | > 40 | 25.8 ± 2.74 | > 40 |  |  | 
O=C1[C@H](Cc2ccccc2)N(Cc2ccc(C(F)(F)F)cc2)C(=O)c2ccccc2N1Cc1ccc(C(F)(F)F)cc1 [Compound 30, (S)-3-Benzyl-1,4-bis(4-(trifluoromethyl)benzyl)-3,4-dihydro-1H-benzo[e][1,4]diazepine-2,5-dione] | 7.44 ± 2.12 | 37.3 ± 4.45 | > 40 | 13.8 ± 3.11 | 5.06 ± 1.73 | > 40 |  |  | 
CC(C)C[C@H]1CNc2ccccc2C(=O)N1Cc1ccc(C(F)(F)F)cc1 [Compound 33, (S)-3-Isobutyl-4-(4-(trifluoromethyl)benzyl)-1,2,3,4-tetrahydro-5H-benzo[e][1,4]diazepin-5-one] | 2.51 ± 1.02 | 13.5 ± 2.22 | 10.4 ± 1.01 | 13.9 ± 2.78 | 2.69 ± 0.85 | 9.62 ± 1.12 |  | lack of selectivity | 
CC(C)C[C@H]1CN(Cc2ccc(C(F)(F)F)cc2)c2ccccc2C(=O)N1Cc1ccc(C(F)(F)F)cc1 [Compound 34, (S)-3-Isobutyl-1,4-bis(4-(trifluoromethyl)benzyl)-1,2,3,4-tetrahydro-5H-benzo[e][1,4]diazepin-5-one] | 5.14 ± 2.15 | > 40 | 17.6 ± 3.65 | > 40 | 11.5 ± 2.16 | > 40 |  |  | 
CC(C)CN1Cc2ccccc2NC[C@@H]1Cc1ccccc1 [Compound 37, (S)-3-Benzyl-4-isobutyl-2,3,4,5-tetrahydro-1H-benzo[e][1,4]diazepine] | 8.92 ± 2.72 | > 40 | > 40 | > 40 | > 40 | > 40 |  |  | 
CC(C)C[C@H]1CN(Cc2ccc(C(F)(F)F)cc2)c2ccccc2CN1Cc1ccc(C(F)(F)F)cc1 [Compound 38, (S)-3-Isobutyl-1,4-bis(4-(trifluoromethyl)benzyl)-2,3,4,5-tetrahydro-1H-benzo[e][1,4]diazepine] | 23.1 ± 3.1 | > 40 | 37.9 ± 1.64 | > 40 | 15.4 ± 1.71 | > 40 |  |  | 
CC(C)C[C@@H]1NC(=O)[C@H](Cc2ccccc2)N(Cc2ccccc2)C1=O [Compound 41, (3S,6S)-1,6-Dibenzyl-3-isobutylpiperazine-2,5-dione] | > 40 | > 40 | > 40 | > 40 | > 40 | > 40 |  |  | no activity
CC(C)CN1c2ccccc2NC(=O)[C@@H]1Cc1ccccc1 [Compound 48, (S)-3-Benzyl-4-isobutyl-3,4-dihydroquinoxalin-2(1H)-one] | > 40 | > 40 | 35.5 ± 5.48 | > 40 | > 40 | > 40 |  |  | no activity
CC(C)C[C@H]1C(=O)Nc2ccccc2N1Cc1ccccc1 [Compound 49, (S)-4-Benzyl-3-isobutyl-3,4-dihydroquinoxalin-2(1H)-one] | > 40 | > 40 | > 40 | > 40 | > 40 | > 40 |  |  | no activity
CC(C)C[C@@H]1NC(=O)OCc2ccccc2NC1=O [Compound 52, (S)-3-Isobutyl-1,3,4,7-tetrahydrobenzo[g][1,3,6]oxadiazonine-2,5-dione] | > 40 | > 40 | > 40 | > 40 | > 40 | > 40 |  |  | no activity
CC(C)COC(=O)[C@H](Cc1ccccc1)N1Cc2ccccc2NC1=O [Compound 64, Isobutyl (S)-2-(2-Oxo-1,4-dihydroquinazolin-3(2H)-yl)-3-phenylpropanoate] | 8.64 ± 1.66 | 28.2 ± 3.2 | 32.3 ± 5.76 | 9.55 ± 1.05 | 7.97 ± 2.45 | 24.4 ± 4.51 |  | lack of selectivity | 
